Data published in PubChem BioAssay AID1919016 (Molecular Pharmacology Branch, DTP, NCI, 2023).

Tested on: NCI-H196 complex spheroid growth, percent test/control
Test: Anticancer human tumor NCI-H196 cell line growth inhibition [AhR];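 also: seven days of drug exposure starting three days after plating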;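 as to viability, T/C: 100% = DMSO vehicle control wells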
Conditions: for viability, T/C: stronger effect = lower value; active = viability on the fitted dose curve at most 10% of control; inactive = the rest
Excerpt: Multicellular complex tumor spheroid response to aryl hydrocarbon receptor antagonists in combination with a variety of drugs and investigational agents in selected tumor cell lines
The current study was undertaken to assess response to aryl hydrocarbon receptor antagonists in combination with standard-of-care drugs and investigational agents in solid tumor complex spheroid models. Complex spheroids include a stromal component modeled by human endothelial cells (HUVEC) and fibroblasts modeled by human mesenchymal stem cells (MSCs). The concentration ranges selected for each drug and investigational agent were based upon clinically achievable concentrations if the clinical Cmax of the agent was known.
Compounds. The drugs and investigational agents: BAY 2416964 (NSC825713), GNF351 (NSC835774), CH-223191 (NSC835775), CPI-455 (NSC825282), aza-TdCyd (NSC777586), decitabine (NSC127716), belinostat (NSC758774), entinostat (NSC756642), pevonedistat (NSC761192), tazemetostat (NSC777109), talazoparib (NSC765396), olaparib (NSC753686), selinexor (NSC780203), nedisertib (M3814, NSC802822), bortezomib (NSC756655), venetoclax (NSC766270), doxorubicin (NSC123127), elimusertib (BAY189344, NSC800525), ceralasertib (AZD6738, NSC777638), TAK-243 (NSC785004), alisertib (NSC759677), etoposide (NSC141540), topotecan (NSC609699), eribulin (NSC707389), gemcitabine (NSC613327), carboplatin (NSC241240), cisplatin (NSC119875), and SN-38 (NSC673596) were obtained from the National Cancer Institute (NCI) Developmental Therapeutics Program Chemical Repository (32). The FDA-approved anticancer drug set is available from the Developmental Therapeutics Program at https://dtp.cancer.gov/organization/dscb/obtaining/available plates.htm. […] The stock solutions were prepared in dimethyl sulfoxide (DMSO, Sigma-Aldrich, St. Louis, MO, cat. D2650), except for the platinum compounds which were prepared in saline (Quality Biological, Gaithersburg, MD, cat. 114-055-101), at 800-fold the tested concentration and stored at -70 degrees C prior to their use. All drugs and investigational agents were tested over a range starting from a high concentration at or near the clinical Cmax and decreasing in half-log increments. If the clinical Cmax for an agent had not been determined, the highest concentration tested was 10 microM (Table 1).
Cell Culture. All cells were maintained in an incubator at 37 degrees C and 5% CO2 with 95% humidity. The PDC lines were cultured according to standard operating procedures established by the NCI PDMR (https://pdmr.cancer.gov). Briefly, all PDCs were thawed and cultured in Matrigel-coated flasks prepared with a working solution of 1X Ham's F-12 nutrient mix, without supplementation (Invitrogen, Waltham, MA, cat. 11765054), 100 U/mL penicillin-streptomycin (Invitrogen, cat. 15140122), and 2.5% Matrigel (Corning Inc., Corning, NY, cat. 354248) for the first three passages. All PDCs were cultured in complete DMEM/F-12 media containing advanced DMEM/F-12 (Invitrogen, cat. 12634028), 4.9% defined fetal bovine serum, heat inactivated (HyClone Laboratories Inc., Logan, UT, cat. SH30070.03HI), 389 ng/mL hydrocortisone (Sigma-Aldrich, cat. H4001), 9.7 ng/mL human EGF recombinant protein (Invitrogen, cat. PHG0313), 23.4 microg/mL adenine (Sigma-Aldrich, cat. A2786), 97.3 U/mL penicillin-streptomycin (Invitrogen, cat. 15140122), 1.9 mM L-glutamine (Invitrogen, cat. 25030081), and 9.7 microM Y-27632 dihydrochloride (Tocris Bioscience, Bristol, United Kingdom, cat. 1254). The PDCs were cultured in complete DMEM/F12 media without 10 microM Y-27632 dihydrochloride for at least two passages prior to the screen. The established cell lines NCI-H1341 and […] were cultured in DMEM/F-12, HEPES (Invitrogen, cat. 11330032), 5% defined fetal bovine serum (HyClone Laboratories Inc., cat. SH30070.03), ITS premix universal culture supplement [insulin (5 microg/mL), transferrin (5 microg/mL), and selenious acid (5 ng/mL)] […]

[1] = curve of first compound, second compound 0.1 µM
[2] = curve of first compound, second compound 0.316 µM
[3] = curve of first compound, second compound 1 µM
[4] = curve of first compound, second compound 3.16 µM
[5] = curve of first compound, second compound 10 µM
[6] = second compound 0.1 µM, first compound 0.00949 µM
[7] = second compound 0.1 µM, first compound 0.03 µM
[8] = second compound 0.1 µM, first compound 0.0949 µM
[9] = second compound 0.1 µM, first compound 0.3 µM
[10] = second compound 0.316 µM, first compound 0.00949 µM
[11] = second compound 0.316 µM, first compound 0.03 µM
[12] = second compound 0.316 µM, first compound 0.0949 µM
[13] = second compound 0.316 µM, first compound 0.3 µM
[14] = second compound 1 µM, first compound 0.00949 µM
[15] = second compound 1 µM, first compound 0.03 µM
[16] = second compound 1 µM, first compound 0.0949 µM
[17] = second compound 1 µM, first compound 0.3 µM
[18] = second compound 3.16 µM, first compound 0.00949 µM
[19] = second compound 3.16 µM, first compound 0.03 µM
[20] = second compound 3.16 µM, first compound 0.0949 µM
[21] = second compound 3.16 µM, first compound 0.3 µM
[22] = second compound 10 µM, first compound 0.00949 µM
[23] = second compound 10 µM, first compound 0.03 µM
[24] = second compound 10 µM, first compound 0.0949 µM
[25] = second compound 10 µM, first compound 0.3 µM

O=C(C=Cc1cccc(S(=O)(=O)Nc2ccccc2)c1)NO + Cc1cncc(-c2nc(NCCc3c[nH]c4ccccc34)c3ncn(C(C)C)c3n2)c1
1300 nM: IC50 [1]
1290 nM: IC50 [4]
1360 nM: IC50 [2]
1380 nM: IC50 [5]
inactive: viability, T/C (second compound 0.1 µM, first compound 0.0316 µM) 102% | viability, T/C (second compound 0.1 µM, first compound 0.1 µM) 102% | viability, T/C (second compound 0.1 µM, first compound 0.316 µM) 79.6% | viability, T/C (second compound 0.1 µM, first compound 1 µM) 63.6% | viability, T/C (second compound 0.1 µM, first compound 3.16 µM) 18.5% | viability, T/C (second compound 0.316 µM, first compound 0.0316 µM) 103% | viability, T/C (second compound 0.316 µM, first compound 0.1 µM) 103% | viability, T/C (second compound 0.316 µM, first compound 0.316 µM) 96.2% | viability, T/C (second compound 0.316 µM, first compound 1 µM) 64.1% | viability, T/C (second compound 0.316 µM, first compound 3.16 µM) 12.2% | viability, T/C (second compound 1 µM, first compound 0.0316 µM) 110% | viability, T/C (second compound 1 µM, first compound 0.1 µM) 115% | viability, T/C (second compound 1 µM, first compound 0.316 µM) 110% | viability, T/C (second compound 1 µM, first compound 1 µM) 51.9% | viability, T/C (second compound 1 µM, first compound 3.16 µM) 18.3% | viability, T/C (second compound 3.16 µM, first compound 0.0316 µM) 114% | viability, T/C (second compound 3.16 µM, first compound 0.1 µM) 99.5% | viability, T/C (second compound 3.16 µM, first compound 0.316 µM) 96.7% | viability, T/C (second compound 3.16 µM, first compound 1 µM) 55.8% | viability, T/C (second compound 3.16 µM, first compound 3.16 µM) 21.7% | viability, T/C (second compound 10 µM, first compound 0.0316 µM) 89.3% | viability, T/C (second compound 10 µM, first compound 0.1 µM) 87.8% | viability, T/C (second compound 10 µM, first compound 0.316 µM) 79.5% | viability, T/C (second compound 10 µM, first compound 1 µM) 64.3% | viability, T/C (second compound 10 µM, first compound 3.16 µM) 15.7%
active: viability, T/C (second compound 0.1 µM, first compound 10 µM) 0.47% | viability, T/C (second compound 0.316 µM, first compound 10 µM) 0.53% | viability, T/C (second compound 1 µM, first compound 10 µM) 1.69% | viability, T/C (second compound 3.16 µM, first compound 10 µM) 0.41% | viability, T/C (second compound 10 µM, first compound 10 µM) 0.74%
1120 nM: IC50 [3]

CC(C)CC(NC(=O)C(Cc1ccccc1)NC(=O)c1cnccn1)B(O)O (stereo not given) + Cc1ccccc1N=Nc1ccc(NC(=O)c2ccnn2C)c(C)c1
15.9 nM: IC50 [4]
15.8 nM: IC50 [3]
active: viability, T/C [7] 6.41% | viability, T/C [8] 4.21% | viability, T/C [9] 5.04% | viability, T/C [11] 6.9% | viability, T/C [12] 4.16% | viability, T/C [13] 3.98% | viability, T/C [15] 8.93% | viability, T/C [16] 4.78% | viability, T/C [17] 6.96% | viability, T/C [19] 8.44% | viability, T/C [20] 3.34% | viability, T/C [21] 3.4% | viability, T/C [24] 8.98% | viability, T/C [25] 5.84%
inactive: viability, T/C (second compound 0.1 µM, first compound 0.000949 µM) 97.6% | viability, T/C (second compound 0.1 µM, first compound 0.003 µM) 101% | viability, T/C [6] 74.9% | viability, T/C (second compound 0.316 µM, first compound 0.000949 µM) 93.6% | viability, T/C (second compound 0.316 µM, first compound 0.003 µM) 96.4% | viability, T/C [10] 83.1% | viability, T/C (second compound 1 µM, first compound 0.000949 µM) 90.8% | viability, T/C (second compound 1 µM, first compound 0.003 µM) 101% | viability, T/C [14] 83% | viability, T/C (second compound 3.16 µM, first compound 0.000949 µM) 97.4% | viability, T/C (second compound 3.16 µM, first compound 0.003 µM) 95.8% | viability, T/C [18] 83.8% | viability, T/C (second compound 10 µM, first compound 0.000949 µM) 89.2% | viability, T/C (second compound 10 µM, first compound 0.003 µM) 90.5% | viability, T/C [22] 85.1% | viability, T/C [23] 14.6%
14.4 nM: IC50 [1]
15.6 nM: IC50 [2]
16.8 nM: IC50 [5]

Cc1ccccc1N=Nc1ccc(NC(=O)c2ccnn2C)c(C)c1
inactive: viability, T/C (compound 0.1 µM) 96.4% [middle of 20 runs] | viability, T/C (compound 0.316 µM) 98% [middle of 20 runs] | viability, T/C (compound 3.16 µM) 95.8% [middle of 20 runs] | viability, T/C (compound 10 µM) 93.3% [middle of 20 runs]
> 10000 nM: IC50 (compound alone, run of 08/22/2022)

CCN(c1cc(-c2ccc(CN3CCOCC3)cc2)cc(C(=O)NCc2c(C)cc(C)[nH]c2=O)c1C)C1CCOCC1 + Cc1cncc(-c2nc(NCCc3c[nH]c4ccccc34)c3ncn(C(C)C)c3n2)c1
> 3000 nM: IC50 [1] | IC50 [2] | IC50 [3] | IC50 [4] | IC50 [5]
inactive: viability, T/C [6] 103% | viability, T/C [7] 97.3% | viability, T/C [8] 97.7% | viability, T/C [9] 96.9% | viability, T/C (second compound 0.1 µM, first compound 0.949 µM) 99.3% | viability, T/C (second compound 0.1 µM, first compound 3 µM) 97.3% | viability, T/C [10] 106% | viability, T/C [11] 98.8% | viability, T/C [12] 102% | viability, T/C [13] 92.4% | viability, T/C (second compound 0.316 µM, first compound 0.949 µM) 99% | viability, T/C (second compound 0.316 µM, first compound 3 µM) 98.8% | viability, T/C [14] 103% | viability, T/C [15] 101% | viability, T/C [16] 111% | viability, T/C [17] 97% | viability, T/C (second compound 1 µM, first compound 0.949 µM) 92.2% | viability, T/C (second compound 1 µM, first compound 3 µM) 93.3% | viability, T/C [18] 109% | viability, T/C [19] 105% | viability, T/C [20] 114% | viability, T/C [21] 106% | viability, T/C (second compound 3.16 µM, first compound 0.949 µM) 104% | viability, T/C (second compound 3.16 µM, first compound 3 µM) 121% | viability, T/C [22] 86.9% | viability, T/C [23] 81.2% | viability, T/C [24] 86.5% | viability, T/C [25] 81.1% | viability, T/C (second compound 10 µM, first compound 0.949 µM) 87.2% | viability, T/C (second compound 10 µM, first compound 3 µM) 90.1%
